Laboratory results from patent publication US12576168B2, “Peptide PET/SPECT probes specific to oncoproteins in tumor extracellular matrix” (CASE WESTERN RESERVE UNIVERSITY, priority 2019, dated 2026).
Each block holds one substance with its values, some of them ahead of it. Ends that are not written are not given here. * marks the point of attachment. DOTA = O=C(O)CN1CCN(CC(=O)O)CCN(CC(=O)*)CCN(CC(=O)O)CC1; AEEA = NCCOCCOCC(=O)O

How the values were obtained:
EDB-FN [1] = target: T1, EDB-FN (Homo sapiens, UniProt P02751); assay: ZD2-Cy5.5 staining of human pancreatic specimens; assay type: binding; parameters: incubation of ZD2-Cy5.5 with tumor slides of the above tumor xenografts; from tissue; host or cells: Sections of BXPC3, Capan-1, Panc 10.05 and Panc-1 tumour xenografts from female nude mice; normal pancreas and muscle as controls
T1 sequence (P02751 32-2477): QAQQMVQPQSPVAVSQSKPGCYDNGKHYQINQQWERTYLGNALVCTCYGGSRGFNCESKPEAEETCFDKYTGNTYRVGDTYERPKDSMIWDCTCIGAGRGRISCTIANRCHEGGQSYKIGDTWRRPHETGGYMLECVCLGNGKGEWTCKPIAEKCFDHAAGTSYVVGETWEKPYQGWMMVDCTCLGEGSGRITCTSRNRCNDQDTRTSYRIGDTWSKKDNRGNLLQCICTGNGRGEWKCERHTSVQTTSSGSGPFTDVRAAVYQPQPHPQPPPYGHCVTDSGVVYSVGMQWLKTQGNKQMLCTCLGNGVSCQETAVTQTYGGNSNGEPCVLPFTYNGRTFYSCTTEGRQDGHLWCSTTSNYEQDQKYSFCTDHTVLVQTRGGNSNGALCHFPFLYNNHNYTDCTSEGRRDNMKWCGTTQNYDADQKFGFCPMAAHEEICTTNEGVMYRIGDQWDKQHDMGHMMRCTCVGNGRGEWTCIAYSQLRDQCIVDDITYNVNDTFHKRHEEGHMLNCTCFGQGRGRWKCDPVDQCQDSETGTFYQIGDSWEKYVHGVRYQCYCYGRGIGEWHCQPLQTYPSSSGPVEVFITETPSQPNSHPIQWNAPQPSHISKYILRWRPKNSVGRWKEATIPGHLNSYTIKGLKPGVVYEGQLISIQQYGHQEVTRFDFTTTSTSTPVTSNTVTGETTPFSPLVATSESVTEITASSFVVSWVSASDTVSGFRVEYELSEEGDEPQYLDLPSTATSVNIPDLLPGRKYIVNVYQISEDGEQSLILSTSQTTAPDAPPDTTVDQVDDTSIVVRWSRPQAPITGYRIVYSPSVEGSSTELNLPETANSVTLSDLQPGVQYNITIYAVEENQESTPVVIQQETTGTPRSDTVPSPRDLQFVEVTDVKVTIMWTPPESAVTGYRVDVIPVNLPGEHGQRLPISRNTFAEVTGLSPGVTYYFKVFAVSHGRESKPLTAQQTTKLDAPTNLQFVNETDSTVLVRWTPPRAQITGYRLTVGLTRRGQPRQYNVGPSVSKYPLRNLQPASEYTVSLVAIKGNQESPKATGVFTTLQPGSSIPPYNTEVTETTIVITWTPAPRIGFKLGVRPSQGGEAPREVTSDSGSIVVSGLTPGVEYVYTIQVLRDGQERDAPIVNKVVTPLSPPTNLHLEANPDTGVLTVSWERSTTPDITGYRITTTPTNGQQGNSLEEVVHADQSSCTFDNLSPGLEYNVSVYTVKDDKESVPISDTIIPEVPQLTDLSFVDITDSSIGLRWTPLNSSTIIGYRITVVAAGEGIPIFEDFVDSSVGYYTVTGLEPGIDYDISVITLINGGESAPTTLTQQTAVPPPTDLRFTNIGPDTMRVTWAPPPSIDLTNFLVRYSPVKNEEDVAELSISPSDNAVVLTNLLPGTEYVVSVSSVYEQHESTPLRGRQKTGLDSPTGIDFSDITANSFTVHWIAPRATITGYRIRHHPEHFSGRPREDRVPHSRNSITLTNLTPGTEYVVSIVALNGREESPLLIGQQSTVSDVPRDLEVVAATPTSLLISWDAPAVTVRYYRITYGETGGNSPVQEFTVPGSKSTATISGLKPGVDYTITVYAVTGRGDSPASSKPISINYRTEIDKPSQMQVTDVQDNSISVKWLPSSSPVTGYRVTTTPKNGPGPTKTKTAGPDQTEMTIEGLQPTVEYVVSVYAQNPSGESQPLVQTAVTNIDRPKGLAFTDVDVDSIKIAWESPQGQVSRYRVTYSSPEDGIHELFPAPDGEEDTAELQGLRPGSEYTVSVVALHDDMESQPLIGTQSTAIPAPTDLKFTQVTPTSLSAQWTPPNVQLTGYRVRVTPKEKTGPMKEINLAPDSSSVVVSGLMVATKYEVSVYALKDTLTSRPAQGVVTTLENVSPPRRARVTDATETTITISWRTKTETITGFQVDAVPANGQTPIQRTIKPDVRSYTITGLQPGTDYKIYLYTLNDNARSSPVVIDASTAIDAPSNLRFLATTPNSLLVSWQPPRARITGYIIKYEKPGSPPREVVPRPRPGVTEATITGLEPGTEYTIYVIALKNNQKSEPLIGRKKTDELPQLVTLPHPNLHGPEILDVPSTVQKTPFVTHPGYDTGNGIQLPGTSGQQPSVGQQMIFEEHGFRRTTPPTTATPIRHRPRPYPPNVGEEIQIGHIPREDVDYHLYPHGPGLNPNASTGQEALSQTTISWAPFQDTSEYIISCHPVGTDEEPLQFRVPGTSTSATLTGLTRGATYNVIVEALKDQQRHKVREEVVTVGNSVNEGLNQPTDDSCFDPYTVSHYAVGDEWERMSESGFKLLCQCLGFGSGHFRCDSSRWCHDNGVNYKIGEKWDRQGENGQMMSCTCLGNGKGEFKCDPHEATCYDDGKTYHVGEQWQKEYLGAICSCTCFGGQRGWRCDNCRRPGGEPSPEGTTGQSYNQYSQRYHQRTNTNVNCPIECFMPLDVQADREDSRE

EDB-FN [2] = target: T1, EDB-FN; assay: ZD2-Cy5.5 fluorescence binding to slides of human pancreatic cancer xenografts; parameters: incubation of ZD2-Cy5.5 with tumor slides of the above tumor xenografts; from tissue; host or cells: Sections of BXPC3, Capan-1, Panc 10.05 and Panc-1 tumour xenografts from female nude mice; normal pancreas and muscle as controls
Method: A ZD2 peptide (Thr-Val-Arg-The-Ser-Ala-Asp) targeted fluorescence tracer ZD2-Cy5.5 was synthesized according to a reported method to assess the binding of the peptide to EDB-FN in PaCa tumors. The binding specificity of ZD2 peptide to EDB-FN in pancreatic cancer has been tested by incubation of ZD2-Cy5.5 with tumor slides of the above tumor xenografts. […] ZD2 peptide is a promising targeting agent for specific binding of EDB-FN in PaCa tumors.

EDB-FN [3] = target: T1, EDB-FN; assay: ZD2 peptide binding to prostate tissue; parameters: from tissue; host or cells: High-grade and low-grade prostate tumour and normal tissue
Water solubility = assay type: physicochemical
[4] = test system: PC3 human prostate cancer xenografts; assay: PET/CT imaging of tracer uptake in PC3 tumors of tumor-bearing mice; assay type: in vivo
Method: (§1) The animal study has been approved by the Institutional Animal Care and Use Committee of the Case Western Reserve University (CWRU), […]. PC3 and LNCaP cells were acquired from the American Type Culture Collection (ATCC, Manassas, VA, USA) and cultured in Roswell Park Memorial Institute medium (Thermo Fisher Scientific, Waltham, MA) supplemented with 10% fetal bovine serum, 100 U/mL penicillin, and 0.1 mg/mL streptomycin in a humid incubator maintained at 37° C. and 5% CO2. Male athymic nude mice (4-6 weeks old) were acquired from the Case Comprehensive Cancer Center (Cleveland, OH, USA) and housed in the CWRU Animal Core Facility. Three million cells in high concentration Matrigel (Corning, Tewksbury, MA) were used for tumor inoculation. LNCaP cells were subcutaneously inoculated in the left flank of the mice. Four weeks later, PC3 cells were inoculated on the right flank of the same mice for PET imaging.
(§2) The radioisotope ^64Cu(II) was acquired from the University of Wisconsin-Madison (Madison, WI). The chelation of ZD2-PEG-DOTA with Cu(II) was first tested with cold CuCl2 in 0.1 N HCl aqueous solution under the same condition as radiolabeling. […] The formation of ZD2-DA-(Cu-DOTA) was verified by MALDI-TOF mass spectrometry (M+1: 1487.8, observed; 1486.04, calculated). […]

[5] = test system: LNCaP human prostate cancer xenografts; assay: PET/CT imaging of tracer uptake in LNCaP tumors of tumor-bearing mice; assay type: in vivo; settings: 22 h after injection, 7.4 MBq (200 μCi) per mouse i.v., N=4
Method: as §1, §2

fluorescence staining of precancerous pancreatic intraepithelial neoplasia (EDB-FN [1]; human PanIN): some fluorescence intensity
fluorescence staining of normal pancreas (EDB-FN [1]; human normal pancreas): little fluorescence
fluorescence staining of human PaCa specimen (EDB-FN [1]; human pancreatic cancer): strong red fluorescence
binding to EDB-FN in PaCa after pre-incubation with BC-1 anti-EDB-FN monoclonal antibody (EDB-FN [2]; BC-1/ZD2): blocked
binding to normal pancreas and muscle (EDB-FN [2]; tissue slides): No significant binding
binding to BXPC3, Capan-1, Panc 10.05 and Panc-1 tumor tissues (EDB-FN [2]; tumor xenograft slides): strong binding
Substance: ZD2-Cy5.5: ZD2 peptide targeted fluorescence tracer synthesized according to a reported method (TVRTSAD; also: Cy5.5 fluorescence tracer attached, site not given here)

binding in normal tissue (EDB-FN [3]): nonbinding
binding to low-grade tumor (EDB-FN [3]): weak binding affinity
binding toward high-grade prostate tumor (EDB-FN [3]): strong binding affinity
water solubility (Water solubility): highly water-soluble
Substance: TVRTSAD-OH [ZD2 peptide, Thr-Val-Arg-Thr-Ser-Ala-Asp]

Substance: ZD2-DA-(^64Cu-DOTA): ZD2 peptide (TVRTSAD) linked via two repeats of 8-amino-3,6-dioxaoctanoic acid to DOTA, complexed with 64Cu ({DOTA-AEEA-AEEA}-TVRTSAD; also: 64Cu chelated by DOTA)
accumulation of PET tracer in PC3 tumors compared to LNCaP tumors ([4]; 22 h, P<0.05): over two-folds higher
accumulation of PET tracer in PC3 tumors (ROI) ([4]; 22 h after injection, 7.4 MBq (200 μCi) per mouse i.v., N=4): 7711±1994 Bq/mL
accumulation of PET tracer in LNCaP tumors (ROI) [5]: 3213±1511 Bq/mL
